According to patent US20040115150A1, “Cosmetics and treatment method for promoting maturation of cornified envelopes” (priority 2001, published 2004):

Experiments:
[1] = test system: immature CE (cornified envelope) in stratum corneum; assay: CE Maturation Promoting Test, incubation varied to 37° C. and 100% relative humidity for a day; set-up: species or system human
Procedure: (§1) Stratum corneum containing many immature CE's were taken from the subjects suffering from skin troubles such as chapping, by means of tape stripping. To the stratum corneum still adhering to the tapes, a test solution was applied, followed by 4 days' incubation under the conditions of 30° C. in temperature and 70% in humidity. After end of the incubation, a tris-hydrochloric acid buffer solution containing dithiothreitol and sodium dodecylsulfate was added, followed by 10 minutes' heating at 100° C. The insoluble matter was collected by centrifuge at 4000 g for 10 minutes. Addition of the eluate and heating cycle was further repeated to thoroughly remove the soluble component. Thus obtained insoluble matter was used as CE.
Properties of each CE thus isolated were evaluated by the following method: CE was spotted on a piece of slide glass, air-dried and fixed in cold acetone. Hydrating the same with Dulbecco's phosphate buffered saline, it was reacted with mouse anti-human involucrin antibody (NOVOCASTRA Co.) as the primary antibody. Excessive antibody was removed by washing and the residue was reacted with FITC-labeled rabbit anti-mouse immunoglobulin antibody as the secondary antibody. Excessive antibody was removed by washing, and the residue was reacted with Nile Red dye solution, sealed and observed with a fluorescence microscope. The observed images were taken into computer via CCD camera, and the ratio of involucrin positive immature CE and that of Nile Red-positive mature CE were evaluated using an image analysis software (Win Roof) or the like.
Procedures similar to Example 1 were repeated, except that the incubation conditions were varied to 37° C. and 100% (relative humidity) for a day.

[2] = test system: immature CE (cornified envelope) in stratum corneum; assay: CE Maturation Promoting Test (tape-stripped stratum corneum, 4 days' incubation at 30° C., 70% humidity); set-up: species or system human; details: test solution applied to tape-stripped stratum corneum, involucrin/Nile Red staining, mean of N = 3, water control 11.7
Procedure: as §1
Properties of each CE thus isolated were evaluated by the following method: CE was spotted on a piece of slide glass, air-dried and fixed in cold acetone. […] Excessive antibody was removed by washing, and the residue was reacted with Nile Red dye solution, sealed and observed with a fluorescence microscope. The observed images were taken into computer via CCD camera, and the ratio of involucrin positive immature CE and that of Nile Red-positive mature CE were evaluated using an image analysis software (Win Roof) or the like.

[3] = Table 2, one day, mean of N = 3, water control 36.9
[4] = Table 3, one day, mean of N = 3, before treatment 28.3, 0.1 M MES buffer pH5.5 control 3.0

| Compound | Ratio of Immature CE (%) [1, 3] [%] | Ratio of Immature CE (%) [1, 4] [%] | Ratio of Immature CE (%) [2] [%] |
| --- | --- | --- | --- |
| C[N+](C)(C)CC(=O)O [10% trimethyl glycine, trimethyl glycine] | 9.3 | – | – |
| [Ca+2].[Cl-].[Cl-] [1 mM calcium chloride, calcium chloride] | – | 1.83 | – |
| OCC(O)CO [10% glycerin, glycerin] | 14.6 | – | 6.3 |
| O[C@H](CS)[C@H](O)CS (racemic) [10 mM dithiothreitol, dithiothreitol] | – | 0.33 | – |
